Results from ChEMBL document CHEMBL1201862, “PubChem BioAssay data set” (2004).
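Each compound was tested at five concentrations against cells in 96-well plates for 48 hours. GI50 is the concentration that inhibits growth by half.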 Active and inactive are the calls of the source. Cut-off read from the data, not from the text of the source: active = GI50 up to about 1.1 µM and inactive = higher.

Columns and labels:
Assay in all cases: inhibition of tumour cell growth, NCI panel, 48 h
UO-31 = tested on: UO-31
RXF 393 = tested on: RXF 393
K562 = tested on: K562
RPMI-8226 = tested on: RPMI-8226
DLD-1 = tested on: DLD-1
U-251 = tested on: U-251
LOX IMVI = tested on: LOX IMVI
IGROV-1 = tested on: IGROV-1
SF-295 = tested on: SF-295
SF-268 = tested on: SF-268
NCI-H226 = tested on: NCI-H226
M19-MEL = tested on: M19-MEL
SN12C = tested on: SN12C
SNB-75 = tested on: SNB-75
SNB-19 = tested on: SNB-19
786-0 = tested on: 786-0
HOP-62 = tested on: HOP-62

Measured: GI50

O=C/C(=C(/Cl)c1ccc(O)cc1)c1ccccc1
inactive: UO-31 21 µM | RXF 393 21.6 µM | K562 45.3 µM | RPMI-8226 17.2 µM | DLD-1 23.5 µM | U-251 24 µM | LOX IMVI 21.6 µM | IGROV-1 26 µM | SF-295 33.3 µM | SF-268 25 µM | NCI-H226 > 100 µM | M19-MEL 19.7 µM | SN12C 24.6 µM | SNB-75 15.3 µM | SNB-19 41.2 µM | 786-0 27.8 µM

COc1ccc(N2C(=O)C3c4[nH]c5ccccc5c4C4CC(C)CC(C)C4C3C2=O)cc1 (stereo not given)
inactive: UO-31 > 100 µM | RXF 393 > 100 µM | K562 > 100 µM | HOP-62 > 100 µM | RPMI-8226 > 100 µM | DLD-1 > 100 µM | U-251 > 100 µM | IGROV-1 > 100 µM | SF-295 > 100 µM | SF-268 > 100 µM | NCI-H226 > 100 µM | M19-MEL > 100 µM | SN12C > 100 µM | SNB-75 > 100 µM | SNB-19 > 100 µM | 786-0 > 100 µM

O=c1c(Cc2ccccc2)c(O)cc2n1CCC2
inactive: UO-31 > 100 µM | RXF 393 > 100 µM | K562 > 100 µM | HOP-62 > 100 µM | RPMI-8226 > 100 µM | DLD-1 > 100 µM | U-251 > 100 µM | LOX IMVI > 100 µM | IGROV-1 > 100 µM | SF-295 > 100 µM | SF-268 > 100 µM | NCI-H226 > 100 µM | M19-MEL > 100 µM | SN12C > 100 µM | SNB-75 > 100 µM | SNB-19 > 100 µM | 786-0 > 100 µM

Cc1ccccc1NC(=O)CC(=O)NNCC(=O)Nc1nnc(-c2ccccc2)s1
inactive: UO-31 45 µM | K562 37.8 µM | HOP-62 42.9 µM | RPMI-8226 25 µM | DLD-1 98.9 µM | U-251 50 µM | LOX IMVI 51.3 µM | IGROV-1 > 100 µM | SF-295 > 100 µM | SF-268 > 100 µM | NCI-H226 26.5 µM | M19-MEL > 100 µM | SN12C > 100 µM | SNB-75 24.7 µM | SNB-19 79.1 µM | 786-0 31.9 µM

CC(C)C1=Cc2ccc3c(c2C(=O)C1=O)CCCC3(C)C [MILTIRONE]
inactive: UO-31 6.64 µM | RXF 393 1.85 µM | K562 2.67 µM | HOP-62 19.6 µM | RPMI-8226 2.12 µM | DLD-1 2.15 µM | U-251 14.2 µM | LOX IMVI 12.2 µM | IGROV-1 5.93 µM | SF-295 17.2 µM | SF-268 6.9 µM | NCI-H226 20.5 µM | M19-MEL 2.56 µM | SN12C 5.56 µM | SNB-75 15.3 µM | SNB-19 17.2 µM | 786-0 5.65 µM

Cc1ccc(NC(=O)C(=O)C2C(=O)N(c3ccccc3)N=C2N)cc1C (stereo not given)
inactive: UO-31 > 100 µM | K562 > 100 µM | HOP-62 > 100 µM | RPMI-8226 > 100 µM | DLD-1 > 100 µM | U-251 > 100 µM | IGROV-1 > 100 µM | SF-295 > 100 µM | SF-268 > 100 µM | NCI-H226 > 100 µM | M19-MEL > 100 µM | SN12C > 100 µM | SNB-75 > 100 µM | SNB-19 > 100 µM | 786-0 > 100 µM

O=CN/C=C\c1cc(O)ccc1O
inactive: UO-31 13.8 µM | K562 13.3 µM | HOP-62 18.6 µM | RPMI-8226 13.6 µM | DLD-1 14.6 µM | U-251 32 µM | LOX IMVI 7.23 µM | IGROV-1 > 40.1 µM | SF-295 28.4 µM | SF-268 22.5 µM | NCI-H226 14.5 µM | M19-MEL 11.8 µM | SN12C 14 µM | SNB-75 > 100 µM | SNB-19 > 100 µM | 786-0 15.8 µM

BrC(Br)([P+](c1ccccc1)(c1ccccc1)c1ccccc1)[P+](c1ccccc1)(c1ccccc1)c1ccccc1
inactive: UO-31 23.6 µM | RXF 393 11.1 µM | HOP-62 40.5 µM | RPMI-8226 6.87 µM | DLD-1 15.9 µM | U-251 20.3 µM | LOX IMVI 13.2 µM | IGROV-1 18.1 µM | SF-295 29.4 µM | SF-268 24 µM | NCI-H226 20.3 µM | M19-MEL 13.3 µM | SN12C 22.7 µM | SNB-75 19.4 µM | 786-0 13.5 µM

CNC(=S)N/N=C1\CC(c2ccccc2)Oc2ccccc21 (stereo not given)
inactive: UO-31 8.11 µM | RXF 393 > 100 µM | K562 > 100 µM | DLD-1 > 100 µM | U-251 > 100 µM | LOX IMVI > 100 µM | IGROV-1 > 100 µM | SF-295 > 100 µM | SF-268 > 100 µM | NCI-H226 43.7 µM | M19-MEL 91.8 µM | SN12C > 100 µM | SNB-75 > 100 µM | SNB-19 > 100 µM | 786-0 > 100 µM

COc1ccccc1/C=C\c1cc(OC)c(OC)c(OC)c1
inactive: UO-31 16.1 µM | RXF 393 11 µM | K562 4.06 µM | HOP-62 5.18 µM | RPMI-8226 5.01 µM | DLD-1 23.2 µM | U-251 6.03 µM | LOX IMVI 9.59 µM | IGROV-1 6.41 µM | SF-295 4.83 µM | NCI-H226 19.2 µM | M19-MEL 9.1 µM | SN12C 29.3 µM | SNB-75 10.7 µM | SNB-19 39.4 µM | 786-0 31.2 µM

C/C=C1\CN2CCc3c([nH]c4ccccc34)C2CC1CCO (stereo not given)
inactive: UO-31 74.8 µM | RXF 393 > 100 µM | K562 > 100 µM | HOP-62 > 100 µM | DLD-1 > 100 µM | U-251 > 100 µM | LOX IMVI > 100 µM | IGROV-1 > 100 µM | SF-295 > 100 µM | SF-268 > 100 µM | NCI-H226 > 100 µM | M19-MEL > 100 µM | SN12C > 100 µM | SNB-75 28.8 µM | SNB-19 > 100 µM | 786-0 > 100 µM

O=C1CSC(C(/N=N/c2ccccc2)=C2Nc3ccccc3N2)=N1
inactive: UO-31 95.7 µM | K562 33.5 µM | HOP-62 23.7 µM | DLD-1 64.3 µM | U-251 97.9 µM | LOX IMVI 52.1 µM | IGROV-1 > 100 µM | SF-295 22.1 µM | SF-268 36.1 µM | NCI-H226 13.6 µM | M19-MEL 36.7 µM | SN12C 66.8 µM | SNB-75 34.4 µM | SNB-19 31.9 µM | 786-0 25.8 µM

Cc1cccc(NC2=NC(=O)C(CC(=O)Nc3ccccc3Cl)S2)c1 (stereo not given)
inactive: UO-31 > 100 µM | RXF 393 > 100 µM | K562 > 100 µM | RPMI-8226 > 100 µM | DLD-1 > 100 µM | LOX IMVI > 100 µM | IGROV-1 > 100 µM | SF-295 > 100 µM | SF-268 > 100 µM | NCI-H226 > 100 µM | M19-MEL > 100 µM | SN12C > 100 µM | SNB-75 > 100 µM | SNB-19 > 100 µM | 786-0 > 100 µM
